The record followed here is ChEMBL document CHEMBL1201862, “PubChem BioAssay data set” (2004).

Some test systems named below: KM-20L2; HOP-18; DMS-273; DMS-114; SNB-78; LXFL 529; DLD-1; RXF 631; XF498.
Holding throughout (experiment): inhibition of tumour cell growth, NCI panel, 48 h

SMILES strings stand for the structures.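 Grown in 96-well plates, cells were treated for 48 hours with each compound at five concentrations. Insufficient inhibition: endpoint recorded as highest concentration tested. GI50 = concentration required for 50% inhibition of growth.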 Activity calls are given as the source filed them. Rule as the data show it: active = GI50 up to about 1.1 µM and inactive = higher. Bounds are passed on as bounds.

For the molecule `Cc1cccc(C(C)(C)C)c1NC(=O)C(=O)Cc1nc2ccccc2s1`, the GI50 in the experiment on KM-20L2, in the experiment on HOP-18, in the experiment with DMS-273, with DMS-114, in the experiment with SNB-78 and in the experiment with LXFL 529 was > 100 µM (inactive) in each case. In addition, the GI50 in the experiment on DLD-1 and in the experiment on RXF 631 was > 100 µM (inactive) in each case.

As to `N#C/C(=C/c1ccc([N+](=O)[O-])o1)c1ccccc1`, the GI50 with KM-20L2, with HOP-18, with DMS-273, in the experiment with DMS-114, with SNB-78 and in the experiment on LXFL 529 was > 100 µM (inactive) in each case. For the same molecule, the GI50 with DLD-1 was > 100 µM (inactive).

In the case of `Cc1noc2cccc(O)c12`, the GI50 in the experiment on KM-20L2, with HOP-18, in the experiment on DMS-273, with DMS-114, in the experiment on SNB-78 and with XF498 was > 100 µM (inactive) in each case. Moreover, the GI50 in the experiment on LXFL 529 and in the experiment on DLD-1 was > 100 µM (inactive) in each case.

With `S=P(c1ccccc1)(c1ccccc1)C1(C2(P(=S)(c3ccccc3)c3ccccc3)CC2)CC1`, the GI50 with KM-20L2, in the experiment with DMS-273, with DMS-114, in the experiment on SNB-78, with XF498 and with LXFL 529 was > 100 µM (inactive) throughout. The GI50 with DLD-1 and in the experiment on RXF 631 was > 100 µM (inactive) in each case.

As to `CC(C)c1ccc(C2C3=C(N=C4SCC(=O)N42)C(=O)c2ccccc23)cc1` (stereo not drawn), the GI50 in the experiment on KM-20L2 was > 100 µM (inactive); in the experiment on DMS-273 it was > 100 µM (inactive); in the experiment with DMS-114 it was 53.5 µM (inactive); with XF498 it was 87.3 µM (inactive); in the experiment with LXFL 529, 52.4 µM (inactive); in the experiment with DLD-1 it was 81.8 µM (inactive). For the same molecule, the GI50 with RXF 631 was > 100 µM (inactive).

Take `C=C(c1ccccc1N)[C@@]1(O)C[C@H](/C(=C\C)CO)C[C@@H]1NCc1ccccc1`: the GI50 in the experiment with KM-20L2 was 17.3 µM (inactive); with HOP-18, 20.4 µM (inactive); in the experiment on DMS-273 it was 28.6 µM (inactive); in the experiment with DMS-114 it was 17 µM (inactive); in the experiment on SNB-78, 25.2 µM (inactive).

On to `C#CCN(N=O)C(=O)NCCCCC(NC(=O)OCc1ccccc1)C(=O)OCc1ccccc1` (stereo not drawn), for which the GI50 with KM-20L2 was > 100 µM (inactive); with HOP-18, > 100 µM (inactive); in the experiment with DMS-273, 84.3 µM (inactive); in the experiment with SNB-78 it was 46.2 µM (inactive); in the experiment with XF498, 29.9 µM (inactive); with LXFL 529, 19.1 µM (inactive). The GI50 in the experiment with DLD-1 was 29 µM (inactive).

Consider `Sc1nnc(/C=C/c2ccc(Cl)c(Cl)c2)[nH]1`, for which the GI50 is > 100 µM (inactive) in the experiment on KM-20L2; > 100 µM (inactive) with DMS-273; 0.0298 µM (active) in the experiment on DMS-114; 30.9 µM (inactive) in the experiment on XF498; > 100 µM (inactive) in the experiment with DLD-1.

On to `NNC(=O)/C(=C/c1ccc(Cl)c(Cl)c1)NC(=O)c1ccccc1`, for which the GI50 was > 100 µM (inactive) in the experiment on KM-20L2; 61.8 µM (inactive) in the experiment with DMS-114; > 100 µM (inactive) with SNB-78; > 100 µM (inactive) with XF498; > 100 µM (inactive) in the experiment with LXFL 529; > 100 µM (inactive) in the experiment on DLD-1. The GI50 in the experiment on RXF 631 is > 100 µM (inactive).

With `O=C(CSc1nc(-c2ccccc2)c(-c2ccccc2)[nH]1)N/N=C/c1ccc(O)cc1`, the GI50 in the experiment with KM-20L2 is 24.5 µM (inactive); in the experiment on HOP-18 it was 12.2 µM (inactive); in the experiment on DMS-273, 18.3 µM (inactive); in the experiment on DMS-114, 22.1 µM (inactive); in the experiment with SNB-78, 37.9 µM (inactive); in the experiment with XF498, 28.5 µM (inactive). For the same molecule, the values for the GI50 with LXFL 529 and in the experiment on DLD-1 were 30.5 µM (inactive) and 36.7 µM (inactive), respectively.

Regarding `Cc1cc(NS(=O)(=O)c2ccc(NC(=O)c3cccc4c(N)c5ccccc5nc34)cc2)no1`, the GI50 was 34.1 µM (inactive) in the experiment on KM-20L2; 19.2 µM (inactive) in the experiment on DMS-273; 22.2 µM (inactive) with DMS-114; 27.5 µM (inactive) in the experiment on SNB-78; 21.8 µM (inactive) in the experiment on XF498; 32 µM (inactive) in the experiment with LXFL 529. Further, the results for the GI50 with DLD-1 and in the experiment with RXF 631 were 30.6 µM (inactive) and 18.4 µM (inactive), respectively.

For `O=C1CCCc2ccc([N+](=O)[O-])c(O)c21`, the GI50 in the experiment with KM-20L2 is > 100 µM (inactive); with DMS-273 it was > 100 µM (inactive); in the experiment with DMS-114, 66.1 µM (inactive); with SNB-78, > 100 µM (inactive); in the experiment on LXFL 529 it was > 100 µM (inactive); with DLD-1, > 100 µM (inactive).

Regarding `NC1=C2C(Br)=CN([C@@H]3O[C@H](CO)[C@@H](O)[C@@H]3O)C2C(=O)N=N1` (stereo partly drawn), the GI50 is 22.2 µM (inactive) in the experiment with KM-20L2; 5.68 µM (inactive) in the experiment with HOP-18; 1.97 µM (inactive) in the experiment with DMS-273; 4.94 µM (inactive) in the experiment on DMS-114; 30.9 µM (inactive) in the experiment with SNB-78; 8.47 µM (inactive) in the experiment on LXFL 529. Also, the GI50 was 0.76 µM (active) in the experiment on DLD-1 and 0.516 µM (active) in the experiment with RXF 631.

Regarding `COC(=O)/C1=C/C2CC(/C=C(/c3ccccc3)C(=O)O1)C2`, the GI50 with HOP-18 was 27.5 µM (inactive); with DMS-273 it was 21.5 µM (inactive); in the experiment with DMS-114, 19 µM (inactive); with XF498, 22 µM (inactive); in the experiment on DLD-1, 22.8 µM (inactive).

Take `Cc1cc(NS(=O)(=O)c2ccc(Nc3c4ccccc4nc4c(C(=O)Nc5ccc(S(N)(=O)=O)cc5)cccc34)cc2)no1`: the GI50 in the experiment with KM-20L2 was > 100 µM (inactive); in the experiment with HOP-18 it was > 100 µM (inactive); in the experiment with DMS-273, > 100 µM (inactive); in the experiment with DMS-114, 28.5 µM (inactive); in the experiment with SNB-78, 23.9 µM (inactive); in the experiment with XF498 it was 20.9 µM (inactive). Also, the GI50 in the experiment on LXFL 529 was 21.1 µM (inactive); with DLD-1, > 100 µM (inactive).

As to `CC(C)=CC(=O)Oc1ccc([N+](=O)[O-])cc1`, the GI50 in the experiment with KM-20L2, with HOP-18, in the experiment with DMS-273, with DMS-114, with SNB-78 and in the experiment on XF498 was > 100 µM (inactive) in each case. Moreover, the GI50 in the experiment on LXFL 529 and in the experiment on DLD-1 was > 100 µM (inactive) throughout.

As for `C[N+](C)(C)CC1CCCC/C1=N\OC(=O)c1ccccc1` (stereo not drawn), the GI50 in the experiment on KM-20L2, in the experiment on HOP-18, with DMS-273, in the experiment on DMS-114, in the experiment on SNB-78 and with LXFL 529 was > 100 µM (inactive) throughout. In addition, the GI50 in the experiment on DLD-1 and in the experiment with RXF 631 was > 100 µM (inactive) throughout.

With `NS(=O)(=O)c1cc2c(cc1Cl)NC(/C(=N/NC(=O)c1ccncc1)C1C(=O)NC(=O)NC1=O)=NS2(=O)=O`, the GI50 in the experiment on KM-20L2, with DMS-273, with DMS-114, in the experiment on SNB-78, with LXFL 529 and in the experiment with DLD-1 was > 100 µM (inactive) throughout. In addition, the GI50 with RXF 631 was > 100 µM (inactive).
